Test results from publication PMC6835763, “Influence of Short Cationic Lipopeptides with Fatty Acids of Different Chain Lengths on Bacterial Biofilms Formed on Polystyrene and Hydrogel Surfaces” (Pharmaceutics, 2019).
Values after ≈ are worked out from the molar mass of the structure shown. Where a SMILES comes first, the peptide text is derived from it. Bridges are numbered along the chain shown (N, C = ends). Roman numbers before positions name the chains, in order. The star is where a group is joined. Palmitoyl = CCCCCCCCCCCCCCCC(=O)*; Lauroyl = CCCCCCCCCCCC(=O)*

Key:
[1] = RP-HPLC retention to evaluate the hydrophobicity of lipopeptides; format: physicochemical; conditions: chromatographic, Luna C18(2) 3.0 × 100 mm, 5.0 µm, linear 20–80% acetonitrile in water over 10 min, 0.1% formic acid, 0.5 mL/min, UV 214 nm, used to evaluate hydrophobicity
Description: The crude peptide was lyophilized and subsequently purified by RP-HPLC. The purifications were carried out on a Phenomenex Gemini-NX C18 column (21.20 × 100 mm, 5.0 µm particle size, and 110 Å pore size). Acetonitrile and water, both containing 0.1% of TFA, were used as the mobile phase. UV detection at 214 nm was used. The crude peptides were eluted with a linear 20–80% acetonitrile gradient in deionized water over 60 min at a flow rate of 10.0 mL/min. The purity and identity of the peptides were confirmed with LC-MS analysis. A Waters Alliance e2695 RP-HPLC system (Waters, Milford, MA, USA) with Waters 2998 PDA (Waters, Milford, MA, USA) and Acquity QDA detectors (Empower®3 software, Database Version 7.21.00.00) was used. All analyses were carried out on a Phenomenex, Luna C18(2) column (3.0 × 100 mm, 5.0 µm particle size, 100 Å pore size). The samples were analyzed with a linear 20–80% acetonitrile gradient in deionized water over 10 min at a flow rate of 0.5 mL/min with UV detection at 214 nm. Both eluents contained 0.1% (v/v) of formic acid. The pure fractions (>95%, by HPLC analysis) were collected and lyophilized. The retention time and percentage of ACN (%) at which each peptide was eluted are included in Table 1 to evaluate the hydrophobicity of lipopeptides. The identity of all compounds was confirmed using mass spectrometry (Waters Alliance e2695 system with Acquity QDA detector, Waters, Milford, MA, USA) with electrospray ionization in positive ion mode (ESI-MS). In this mode, a proton is attached to basic moieties (amine groups, guanidine groups). The theoretical mass of the peptide was calculated and then expected ions (m/z—mass to charge ratio) were compared to measured m/z. The results are presented in Table 1, and mass spectra are presented in the Supplementary Materials.

[2] = test system: Enterococcus faecalis ATCC 29212; format: cell-based; conditions: ATCC 29212, 18 h
Description: (§1) The reference strains of gram-positive and gram-negative bacteria (Table 2) were obtained from the Polish Collection of Microorganisms (Polish Academy of Science, Wroclaw, Poland). The microorganisms were cultured in Muller Hinton Broth II (MHB II, Biocorp, Warsaw, Poland), overnight, at 37 °C. The MICs of synthetic lipopeptides and conventional antimicrobials were determined using the broth microdilution method according to the Clinical and Laboratory Standard Institute (CLSI) guidelines on reference strains. […] The PS were incubated under aerobic conditions at 37 °C for 18 h. The MIC (μg/mL) was assumed as the lowest concentration of the compound that inhibited the growth of the microorganisms. All experiments were performed in triplicate and included the growth and sterility controls.

[3] = test system: Escherichia coli ATCC 25922; format: cell-based; conditions: ATCC 25922, 18 h
Description: as §1

[4] = test system: Pseudomonas aeruginosa ATCC 9027; format: cell-based; conditions: ATCC 9027, 18 h
Description: as §1

[5] = test system: Staphylococcus aureus ATCC 25923; format: cell-based; conditions: ATCC 25923, 18 h
Description: as §1

[6] = test system: Staphylococcus epidermidis ATCC 14990; format: cell-based; conditions: ATCC 14990, 18 h
Description: as §1

[7] = test system: Enterococcus faecalis ATCC 29212; test: MBFIC assay (biofilm formation inhibition, resazurin); format: cell-based; conditions: ca. 5 × 10^8 CFU/mL in MHB II, 37 °C, 18 h, visual, triplicate; for MBFIC E. faecalis, CL: contact lenses (CL, Etafilcon A hydrogel) in 24-well plates; for MBFIC E. faecalis, PS: polystyrene plates (PS), 96-well
Description: (§2) To determine the inhibitory effect of antimicrobials on the formation of biofilm on hydrophobic surfaces, the bacterial suspensions of strains (initial inoculum of ca. 5 × 10^8 CFU/mL in MHB II medium supplemented with antimicrobials) were cultured on 96-well PS at 37 °C for 18 h under aerobic conditions. After incubation, the suspensions were aspirated, and the wells were rinsed three times with sterile phosphate buffer PBS (AppliChem, Darmstadt, Germany) in order to remove the planktonic cells. Resazurin (final concentration per sample = 0.005%) was applied as a cell viability reagent for reading the results. In contact with the living cells, the dye is metabolized by bacterial dehydrogenases, resulting in a reduction of blue resazurin to pink resorufin. All assays were performed in triplicate and included the growth controls (positive controls: bacterial suspensions without antimicrobials) and the sterility controls (negative controls: a sterile MBH medium). After 1h of incubation, a visual evaluation of results was made. […] In a preliminary study, it was established that the application of lipopeptides at a concentration found active from visual evaluation caused the reduction of bacterial metabolism to approximately 10% (or less) of the positive control once the results were evaluated with a spectrophotometer. After 1 h of incubation with the dye, absorbance was measured at 570 and 600 nm using a microplate reader (Thermo Fisher Scientific, Waltham, MA, USA). The metabolic activity of bacteria in the samples was measured according to the formula presented in the previous paper.
(§3) The MBFIC assay with CL was applied in order to access the influence of lipopeptides on the biofilm formation on hydrogel surfaces. The entire sterile CL (1-Day Acuvue Moist, containing Etafilcon A., purchased from Johnson & Johnson (Vision Care, Jacksonsville, FL, USA), were placed in 24-well PS (Orange Scientific, Braine-l’ Alleud, Belgium) and the MBFICs were determined according to the above protocol.

[8] = test system: Escherichia coli ATCC 25922; test: as above; format: cell-based; conditions: ca. 5 × 10^8 CFU/mL in MHB II, 37 °C, 18 h, visual, triplicate; for MBFIC E. coli, CL: contact lenses (CL, Etafilcon A hydrogel) in 24-well plates; for MBFIC E. coli, PS: polystyrene plates (PS), 96-well
Description: as §2, §3

[9] = test system: Proteus mirabilis PCM 543; test: as above; format: cell-based; conditions: ca. 5 × 10^8 CFU/mL in MHB II, 37 °C, 18 h, visual, triplicate; for MBFIC P. mirabilis, CL: contact lenses (CL, Etafilcon A hydrogel) in 24-well plates; for MBFIC P. mirabilis, PS: polystyrene plates (PS), 96-well
Description: as §2, §3

[10] = test system: Pseudomonas aeruginosa ATCC 9027; test: as above; format: cell-based; conditions: ca. 5 × 10^8 CFU/mL in MHB II, 37 °C, 18 h, visual, triplicate; for MBFIC P. aeruginosa, CL: contact lenses (CL, Etafilcon A hydrogel) in 24-well plates; for MBFIC P. aeruginosa, PS: polystyrene plates (PS), 96-well
Description: as §2, §3

[11] = test system: Staphylococcus aureus ATCC 25923; test: as above; format: cell-based; conditions: ca. 5 × 10^8 CFU/mL in MHB II, 37 °C, 18 h, resazurin, visual, triplicate; for MBFIC S. aureus, CL: contact lenses (CL, Etafilcon A hydrogel) in 24-well plates; for MBFIC S. aureus, PS: polystyrene plates (PS), 96-well
Description: as §2, §3

[12] = test system: Staphylococcus epidermidis ATCC 14990; test: as above; format: cell-based; conditions: ca. 5 × 10^8 CFU/mL in MHB II, 37 °C, 18 h, resazurin, visual, triplicate; for MBFIC S. epidermidis, CL: contact lenses (CL, Etafilcon A hydrogel) in 24-well plates; for MBFIC S. epidermidis, PS: polystyrene plates (PS), 96-well
Description: as §2, §3

[13] = test system: Enterococcus faecalis ATCC 29212; format: cell-based; conditions: ATCC 29212, 24 h
Description: (§4) The biofilms of bacteria associated with the biofilm-related infections were cultured on 96-well flat bottom PS and on CL placed in 24-well plates. The bacteria at initial inoculums of 5 × 10^8 CFU/mL in MHB II were added to the plates and incubated at 37 °C under aerobic conditions. After 24 h of incubation, all cultures were rinsed three times with PBS and fresh medium was added. Subsequently, the obtained biofilm cultures were exposed to solutions of antimicrobials applied at graded concentrations ranging from 1 to 512 μg/mL for 24 h at 37 °C. The anti-biofilm activity of antimicrobials was visualized by resazurin (final concentration per sample = 0.005%) in the same way as in the MBFIC assay. All experiments were performed in triplicate and included growth controls (positive control: bacterial suspension without antimicrobials) and sterility controls (negative controls: sterile MBH II medium).

[14] = test system: Escherichia coli ATCC 25922; format: cell-based; conditions: ATCC 25922, 24 h
Description: as §4

[15] = test system: Proteus mirabilis PCM 543; format: cell-based; conditions: PCM 543, 24 h
Description: as §4

[16] = test system: Pseudomonas aeruginosa ATCC 9027; format: cell-based; conditions: ATCC 9027, 24 h
Description: as §4

[17] = test system: Staphylococcus aureus ATCC 25923; format: cell-based; conditions: ATCC 25923, 24 h
Description: as §4

[18] = test system: Staphylococcus epidermidis ATCC 14990; format: cell-based; conditions: ATCC 14990, 24 h
Description: as §4

[19] = test system: PM biofilm; conditions: cited from earlier work
Text: (§5) They were ineffective against PM, which was difficult to eradicate with peptides (and antibiotics) in previously performed studies. PM can cause infections of the urinary tract, skin, subcutaneous tissue, and wounds. PM is known as a biofilm former, and an evident increase of PM resistance to broad-spectrum fluoroquinolones and cephalosporins has been observed. In the previous study, mature PM b ...

[20] = test system: EC biofilm; conditions: cited from earlier work
Text: as §5

[21] = test system: PA biofilm; conditions: 3-day-old structures; cited from earlier work
Text: as §5

[22] = test system: SA biofilms; design: method as in PMID 24779193; conditions: cited from earlier work

Compound | % ACN at which the peptide was eluted [1] [%] | tR' (adjusted retention time) [1] [min] | MIC E. faecalis [2] [µg/mL] | MIC E. coli [3] [µg/mL] | MIC P. aeruginosa [4] [µg/mL] | MIC S. aureus [5] [µg/mL] | MIC S. epidermidis [6] [µg/mL] | MBFIC E. faecalis, CL [7] | MBFIC E. faecalis, PS [7] | MBFIC E. coli, CL [8] [µg/mL] | MBFIC E. coli, PS [8] [µg/mL] | MBFIC P. mirabilis, CL [9] | MBFIC P. mirabilis, PS [9] | MBFIC P. aeruginosa, CL [10] | MBFIC P. aeruginosa, PS [10] | MBFIC S. aureus, CL [11] [µg/mL] | MBFIC S. aureus, PS [11] [µg/mL] | MBFIC S. epidermidis, CL [12] [µg/mL] | MBFIC S. epidermidis, PS [12] [µg/mL] | susceptibility of mature PM biofilms [19] | also measured
CCCCCCCCCCCC(=O)N[C@@H](CCCCN)C(=O)N[C@@H](CCCNC(=N)N)C(N)=O [Lipopeptide 2, C12-KR-NH2] (Lauroyl-Lys-Arg-NH2) | 33.9 | 2.32 | 64 (≈ 132 µM) | 512 (≈ 1060 µM) | 512 (≈ 1060 µM) | 64 (≈ 132 µM) | 32 (≈ 66.2 µM) | 512/512 μg/mL | 512/512 μg/mL | 128 | 512 | >512/512 μg/mL | >512/512 μg/mL | 512/512 μg/mL | 512/512 μg/mL | 128 | 64 | 32 | 16 | – | MBEC E. faecalis, CL [13]: 128 µg/mL; MBEC E. coli, CL [14]: 512 µg/mL; MBEC P. mirabilis, CL [15]: >512/>512 μg/mL; MBEC P. aeruginosa, CL [16]: >512/>512 μg/mL; MBEC S. aureus, CL [17]: > 512 µg/mL; MBEC S. epidermidis, CL [18]: 256 µg/mL
polymyxin B | – | – | – | – | – | – | – | – | – | – | – | – | – | – | – | – | – | – | – | – | concentration eradicating the PM biofilm ([19]; mature PM biofilms): 512 µg/mL
O=C(O)c1cn(C2CC2)c2cc(N3CCNCC3)c(F)cc2c1=O [ciprofloxacin] | – | – | – | – | – | – | – | – | – | – | – | – | – | – | – | – | – | – | – | resistant | effective concentration against EC biofilm [20]: 1 µg/mL; concentration eliminating PA biofilm [21]: 4 µg/mL; susceptibility of SA biofilms [22]: resistant
citropin 1.1 | – | – | – | – | – | – | – | – | – | – | – | – | – | – | – | – | – | – | – | resistant | –
CCCCCCCCCCCCCCCC(=O)N[C@@H](CCCCN)C(=O)N[C@@H](CCCCN)C(=O)N[C@@H](CSSC[C@H](NC(=O)[C@H](CCCCN)NC(=O)[C@H](CCCCN)NC(=O)CCCCCCCCCCCCCCC)C(N)=O)C(N)=O [Lipopeptide 6, C16-KKC-NH2] (I: Palmitoyl-Lys-Lys-Cys-NH2 / II: Palmitoyl-Lys-Lys-Cys-NH2; disulfide I:3-II:3) | 47.8 | 4.63 | 256 (≈ 208 µM) | 256 (≈ 208 µM) | 256 (≈ 208 µM) | 256 (≈ 208 µM) | 128 (≈ 104 µM) | 256/256 μg/mL | 256/256 μg/mL | 128 | 512 | >512/512 μg/mL | >512/512 μg/mL | 256 µg/mL | 512 µg/mL | 64 | 256 | 64 | 256 | – | MBEC E. faecalis, CL [13]: 512/512 μg/mL; MBEC E. coli, CL [14]: 512/512 μg/mL; MBEC P. mirabilis, CL [15]: >512/>512 μg/mL; MBEC P. aeruginosa, CL [16]: >512/>512 μg/mL; MBEC S. aureus, CL [17]: 512 µg/mL; MBEC S. epidermidis, CL [18]: 256/256 μg/mL
pexiganan | – | – | – | – | – | – | – | – | – | – | – | – | – | – | – | – | – | – | – | resistant | –
